Source: US11077100B2, “Tetrahydroquinoline derivatives as P2X7 receptor antagonists” (RaQualia Pharma Inc., priority 2017, dated 2021)

Tests used:
rat P2X7 = rat P2X7 (Rattus norvegicus (Rat), UniProt Q64663); assay: Rat P2X7 functional assay (Ca2+ influx, Fluo-4, FDSS); format: cell-based; conditions: HEK293 cells stably expressing rat P2X7; BzATP final 10 microM; 7-point dose-response; read-out: Antagonistic activities with respect to the rat P2X7 receptor (IC50)
Protocol: Rat P2X7 Functional Assay
The functional activity of compounds was determined by measuring changes in intracellular calcium concentration using a Ca^2+-sensitive fluorescent dye, Fluo-4 (Molecular Probes). The changes in fluorescent signal were monitored by the cell imaging technology by Hamamatsu Photonics's Functional Drug Screening System (FDSS). Increases in intracellular Ca^2+ concentration were readily detected upon activation with BzATP.
HEK293 cells stably expressing rat P2X7 (GenBank accession number NM_019256) were grown in Corning CellBIND cell culture flasks, in a 5% CO2 humidified incubator to about 80% confluence. Media composition consisted of Dulbecco's Modified Eagle Medium (high glucose), 10% fetal bovine serum ([…]), 100 units/[…] Penicillin, 100 microg/mL Streptomycin and 250 microg/mL Geneticine.
1. […] Plate-out HEK293-rat P2X7 cells (40 microL medium containing 5,000 cells per well) into poly-D-lysine coated 384-well plates (BD Falcon) at 24 h prior to assay.
2. Incubate at 37° C. in 5% CO2.
3. Incubate the plate at 37° C. in 5% CO2 for 1 h.
5. Test compounds were prepared at 100× the test concentration in DMSO by serial dilution with Biomek-FX liquid handling instrument. 33× diluted compound solutions in assay buffer were prepared in intermediate compound plate with Biomek-NX liquid handling instrument. A further 3× dilution occurred in below steps 6 and 7.
6. Add 20 microL of 33× diluted compound solutions into each well and leave the plate for 10 min under the dark at room temperature.
7. Measure activity by FDSS as follows: • Set the assay plate on the stacker of FDSS. • Start the detection of fluorescence intensity at 540 nm by 480 nm exicitation. • After 30 seconds, add 20 microL of assay buffer containing 30 microM BzATP (final 10 microM).
IC50 values for compounds of the present invention were determined from 7-point dose-response studies. Curves were generated using the average of duplicate wells for each data point. Finally, the IC50 values are calculated with the best-fit dose curve determined by XLfit (ID Business Solutions Ltd.).

human P2X7 = human P2X7 (Homo sapiens (Human), UniProt Q99572); assay: Human P2X7 functional assay (Ca2+ influx, Fluo-4, FDSS); format: cell-based; conditions: antagonistic activity with respect to the human P2X7 receptor; BzATP final concentration 80 microM
In short: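 Ca2+ influx was triggered with BzATP (80 μM final) after a 10-min room-temperature compound preincubation and monitored with Fluo-4 (ex 480/em 540 nm) on FDSS. The cells were HEK293 stably carrying FLAG-tagged human P2X7. Duplicate-averaged 7-point dose-responses gave IC50s.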

Sequence of rat P2X7 (Q64663 whole entry): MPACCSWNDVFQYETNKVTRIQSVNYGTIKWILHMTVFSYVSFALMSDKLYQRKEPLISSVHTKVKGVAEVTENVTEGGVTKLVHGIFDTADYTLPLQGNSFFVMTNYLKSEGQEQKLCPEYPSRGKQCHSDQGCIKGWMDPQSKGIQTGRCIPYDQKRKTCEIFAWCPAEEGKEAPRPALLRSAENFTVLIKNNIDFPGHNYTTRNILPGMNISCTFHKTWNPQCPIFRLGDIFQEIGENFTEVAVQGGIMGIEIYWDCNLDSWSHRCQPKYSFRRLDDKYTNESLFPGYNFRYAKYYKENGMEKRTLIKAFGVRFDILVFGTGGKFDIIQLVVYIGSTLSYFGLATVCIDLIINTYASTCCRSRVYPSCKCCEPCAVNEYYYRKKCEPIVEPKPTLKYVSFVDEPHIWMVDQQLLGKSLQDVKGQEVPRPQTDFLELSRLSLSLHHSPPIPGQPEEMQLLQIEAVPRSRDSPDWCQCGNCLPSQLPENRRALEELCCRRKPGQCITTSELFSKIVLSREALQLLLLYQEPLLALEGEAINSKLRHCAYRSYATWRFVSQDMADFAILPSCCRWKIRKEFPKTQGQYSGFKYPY
Sequence of human P2X7 (Q99572 whole entry): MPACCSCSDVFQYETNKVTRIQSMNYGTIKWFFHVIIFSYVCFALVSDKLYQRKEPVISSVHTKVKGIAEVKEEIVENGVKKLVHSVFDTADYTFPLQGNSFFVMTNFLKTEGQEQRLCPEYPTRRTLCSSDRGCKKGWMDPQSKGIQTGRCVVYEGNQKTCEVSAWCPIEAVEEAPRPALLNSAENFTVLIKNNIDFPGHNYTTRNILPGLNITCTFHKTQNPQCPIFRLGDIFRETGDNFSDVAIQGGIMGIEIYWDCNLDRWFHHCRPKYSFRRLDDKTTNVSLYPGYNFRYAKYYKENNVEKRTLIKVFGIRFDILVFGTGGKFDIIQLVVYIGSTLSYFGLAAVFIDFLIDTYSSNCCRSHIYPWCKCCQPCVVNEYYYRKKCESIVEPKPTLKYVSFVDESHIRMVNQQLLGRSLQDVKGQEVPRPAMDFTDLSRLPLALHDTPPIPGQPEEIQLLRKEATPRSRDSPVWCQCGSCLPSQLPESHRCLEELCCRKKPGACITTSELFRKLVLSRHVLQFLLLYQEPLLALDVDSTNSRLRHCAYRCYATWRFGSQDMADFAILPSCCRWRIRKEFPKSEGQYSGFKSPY

Row | SMILES | IC50 (rat P2X7) [µM] | IC50 (human P2X7) [µM]
1 | N[C@]1(CO)CC[C@@](F)(C(=O)NCc2ccc(Cl)cc2Cl)c2cccnc21 (relative stereo) [Example 59, (5S*,8R*)-8-amino-N-(2,4-dichloro-benzyl)-5-fluoro-8-(hydroxymethyl)-5,6,7,8-tetrahydroquinoline-5-carboxamide] | < 1 | < 0.05
2 | N[C@@]1(CO)CC[C@@](F)(C(=O)NCc2ccc(Cl)cc2Cl)c2cccnc21 (relative stereo) [Example 60, (5S*,8S*)-8-amino-N-(2,4-dichloro-benzyl)-5-fluoro-8-(hydroxymethyl)-5,6,7,8-tetrahydroquinoline-5-carboxamide] | < 1 | 0.101 to 0.3
3 | O=C1COC[C@]2(CC[C@@](F)(C(=O)NCc3ccc(Cl)cc3Cl)c3cccnc32)N1 (relative stereo) [Example 61, (3R*,5′S*)-N-(2,4-dichlorobenzyl)-5′-fluoro-5-oxo-6′,7′-dihydro-5′H-spiro[morpholine-3,8′-quinoline]-5′-carboxamide] | < 1 | < 0.05
4 | Cc1cc(Cl)cc(Cl)c1CNC(=O)C1CCC(=O)c2ncccc21 (stereo not shown) [Example 1, N-(2,4-dichloro-6-methyl-benzyl)-8-oxo-5,6,7,8-tetrahydroquinoline-5-carboxamide] | < 1 | < 0.05
5 | O=C1CCC(C(=O)NCc2cccc(Cl)c2Cl)c2cccnc21 (stereo not shown) [Example 3, N-(2,3-dichlorobenzyl)-8-oxo-5,6,7,8-tetrahydro-quinoline-5-carboxamide] | < 1 | 0.301 to 1
6 | O=C(NCc1cccc(Cl)c1Cl)C1CCC(O)c2ncccc21 (stereo not shown) [Example 8, N-(2,3-dichlorobenzyl)-8-hydroxy-5,6,7,8-tetra hydroquinoline-5-carboxamide] | < 1 | < 0.05
7 | O=C1CCC(F)(C(=O)NCc2c(Cl)cc(Cl)cc2CO)c2cccnc21 (stereo not shown) [Example 14, N-(2,4-dichloro-6-(hydroxymethyl)benzyl)-5-fluoro-8-oxo-5,6,7,8-tetrahydro-quinoline-5-carboxamide] | < 1 | < 0.05
8 | Cc1cc(Cl)cc(Cl)c1CNC(=O)C1(F)CCC(O)c2ncccc21 (stereo not shown) [Example 18, N-(2,4-dichloro-6-methyl-benzyl)-5-fluoro-8-hydroxy-5,6,7,8-tetrahydroquinoline-5-carboxamide] | < 1 | < 0.05
9 | O=C(NCc1c(Cl)cc(Cl)cc1CO)C1(F)CCC(O)c2ncccc21 (stereo not shown) [Example 20, N-(2,4-dichloro-6-(hydroxymethyl)benzyl)-5-fluoro-8-hydroxy-5,6,7,8-tetrahydro quinoline-5-carboxamide] | < 1 | < 0.05
10 | O=C(NCc1cccc(Cl)c1Cl)C1(F)CCC(O)c2ncccc21 (stereo not shown) [Example 21, N-(2,3-dichlorobenzyl)-5-fluoro-8-hydroxy-5,6,7,8-tetrahydroquinoline-5-carboxamide] | < 1 | < 0.05
11 | COCc1cc(Cl)cc(Cl)c1CNC(=O)C1(F)CCC(O)c2ncccc21 (stereo not shown) [Example 23, N-(2,4-dichloro-6-(methoxy-methyl)benzyl)-5-fluoro-8 hydroxy-5,6,7,8-tetrahydro-quinoline-5-carboxamide] | < 1 | < 0.05
12 | Cc1cc(Cl)cc(Cl)c1CNC(=O)C1(O)CCC(O)c2ncccc21 (stereo not shown) [Example 24, N-(2,4-dichloro-6-methyl-benzyl)-5,8-dihydroxy-5,6,7,8-tetrahydroquinoline-5-carboxamide] | < 1 | < 0.05
13 | O=C(NCc1cccc(C(F)(F)F)c1Cl)C1(O)CCC(O)c2ncccc21 (stereo not shown) [Example 25, N-(2-chloro-3-(trifluoro-methyl)benzyl)-5,8-dihydroxy-5,6,7,8-tetrahydroquinoline-5-carboxamide] | < 1 | 0.101 to 0.3
14 | Cc1cc(Cl)cc(Cl)c1CNC(=O)C1CC(O)c2ncccc21 (stereo not shown) [Example 26, N-(2,4-dichloro-6-methyl-benzyl)-7-hydroxy-6,7-dihydro-5H-cyclopenta[b] pyridine-5-carboxamide] | < 1 | < 0.05
15 | O=C(NCc1cccc(C(F)(F)F)c1Cl)C1CC(O)c2ncccc21 (stereo not shown) [Example 27, N-(2-chloro-3-(trifluoro-methyl)benzyl)-7-hydroxy-6,7-dihydro-5H-cyclopenta[b] pyridine-5-carboxamide] | < 1 | < 0.05
16 | O=C(NCc1ccc(Cl)cc1Cl)C1(F)CC(O)c2ncccc21 (stereo not shown) [Example 29, N-(2,4-dichlorobenzyl)-5-fluoro-7-hydroxy-6,7-dihydro-5H-cyclopenta[b]pyridine-5-carboxamide] | < 1 | < 0.05

Continued, values first:

Row | IC50 (rat P2X7) [µM] | IC50 (human P2X7) [µM] | SMILES
17 | < 1 | 0.101 to 0.3 | O=C1COC[C@@]2(CC[C@@](F)(C(=O)NCc3ccc(Cl)cc3Cl)c3cccnc32)N1 (relative stereo) [Example 62, (3S*,5′S*)-N-(2,4-dichlorobenzyl)-5′-fluoro-5-oxo-6′,7′-dihydro-5′H-spiro[morpholine-3,8′-quinoline]-5′-carboxamide]
18 | < 1 | 0.05 to 0.1 | O=C(NCc1cccc(Cl)c1Cl)[C@]1(F)CC[C@@H](O)c2ncccc21 (stereo in doubt) [Example 121, (5S,8RS)-N-(2,3-dichlorobenzyl)-5-fluoro-8-hydroxy-5,6,7,8-tetrahydroquinoline-5-carboxamide]
19 | < 1 | < 0.05 | O=C1CCC(C(=O)NCc2cccc(C(F)(F)F)c2Cl)c2cccnc21 (stereo not shown) [Example 2, N-(2-chloro-3-(trifluoromethyl)benzyl)-8-oxo-5,6,7,8-tetrahydroquinoline-5-carboxamide]
20 | < 1 | < 0.05 | Cc1cc(Cl)cc(Cl)c1CNC(=O)C1CCC(O)c2ncccc21 (stereo not shown) [Example 6, N-(2,4-dichloro-6-methyl-benzyl)-8-hydroxy-5,6,7,8-tetrahydroquinoline-5-carboxamide]
21 | < 1 | < 0.05 | O=C(NCc1cccc(C(F)(F)F)c1Cl)C1CCC(O)c2ncccc21 (stereo not shown) [Example 7, N-(2-chloro-3-(trifluoromethyl)benzyl)-8-hydroxy-5,6,7,8-tetrahydro-quinoline-5-carboxamide]
22 | < 1 | < 0.05 | COCc1cc(Cl)cc(Cl)c1CNC(=O)C1CCC(O)c2ncccc21 (stereo not shown) [Example 10, N-(2,4-dichloro-6-(methoxy-methyl)benzyl)-8-hydroxy-5,6,7,8-tetrahydro-quinoline-5-carboxamide]
23 | < 1 | < 0.05 | C=C1CC(C(=O)NCc2c(C)cc(Cl)cc2Cl)c2cccnc21 (stereo not shown) [Example 11, N-(2,4-dichloro-6-methyl-benzyl)-7-methylene-6,7-dihydro-5H-cyclopenta [b]pyridine-5-carboxamide]
24 | < 1 | < 0.05 | Cc1cc(Cl)cc(Cl)c1CNC(=O)C1(F)CCC(=O)c2ncccc21 (stereo not shown) [Example 12, N-(2,4-dichloro-6-methylbenzyl)-5-fluoro-8-oxo-5,6,7,8-tetrahydroquinoline-5-carboxamide]
25 | < 1 | < 0.05 | O=C1CCC(F)(C(=O)NCc2cccc(C(F)(F)F)c2Cl)c2cccnc21 (stereo not shown) [Example 13, N-(2-chloro-3-(trifluoromethyl)benzyl)-5-fluoro-8-oxo-5,6,7,8-tetrahydro-quinoline-5-carboxamide]
26 | < 1 | < 0.05 | Cc1cc(Cl)cc(Cl)c1CNC(=O)C1CC(=O)c2ncccc21 (stereo not shown) [Example 16, N-(2,4-dichloro-6-methylbenzyl)-7-oxo-6,7-dihydro-5H-cyclopenta[b]pyridine-5-carboxamide]
27 | < 1 | < 0.05 | O=C(NCc1cccc(C(F)(F)F)c1Cl)C1(F)CCC(O)c2ncccc21 (stereo not shown) [Example 19, N-(2-chloro-3-(trifluoro-methyl)benzyl)-5-fluoro-8-hydroxy-5,6,7,8-tetrahydro-quinoline-5-carboxamide]
28 | < 1 | < 0.05 | O=C(NCc1ccc(Cl)cc1Cl)C1(F)CCC(O)c2ncccc21 (stereo not shown) [Example 22, N-(2,4-dichlorobenzyl)-5-fluoro-8-hydroxy-5,6,7,8-tetrahydroquinoline-5-carboxamide]
29 | < 1 | 0.05 to 0.1 | O=C(NCc1cccc(Cl)c1Cl)C1CC(O)c2ncccc21 (stereo not shown) [Example 28, N-(2,3-dichlorobenzyl)-7-hydroxy-6,7-dihydro-5H-cyclo-penta[b]pyridine-5-carboxamide]
